The source of these data is patent US10898522B2, “Compositions and methods for treating graft versus host disease” (Children's Research Institute, Children's National Medical …, priority 2015, dated 2021).

One data set has as its system humanized GvHD mice. As to the kind of experiment: Treatment of humanized GvHD mice (newborn NSG pups transplanted with human BM cells) with echinomycin. Format: in vivo, mouse. Here is the method:
FIG. 5. Sustained treatment of echinomycin protects mice against GvHD and eliminates expanded human leukocytes and inflammation. Panel A. Dosing regimen of echinomycin treatment for humanized GvHD mice. The day that mice were transplanted with human BM cells is defined as day 0. Each arrow represents one echinomycin treatment. The dose for each treatment is 10 μg/kg via intraperitoneal injection. Panel B. Longitudinal analysis of clinical representation of an echinomycin-treated mice. Panel C. Representative FACS plots showing the percentage of human CD45^+ cells in PBL of GvHD mice before and after echinomycin treatment. Data is one representative file from 3 mice and representative of three independent experiments. […] Data are representative of three independent experiments.
FIG. 6. Echinomycin protects mice against lethal GvHD. Panel A. Newborn NSG pups were transplanted with human 5×10^5 BM cells. The mice were treated with the dosing regimen of echinomycin listed in FIG. 5, Panel A. Panel B. Newborn NSG pups were transplanted with human 3×10^5 BM cells. The mice were treated with the dosing regimen of echinomycin listed in FIG. 5, Panel A, except treatment is started at day 17 rather than day 27. […] Data are representative of three independent experiments.
Human bone marrow mononuclear cells were isolated from healthy human adult bone marrow using density gradient separation were purchased from Stemcell Technologies (Vancouver, Canada) and Lonza (Walkersville, Md., USA). Human CD3^+ cells from BM were sorted from human BM cells using BD Influx (BD Biosciences). Cells were thawed, counted and re-suspended in 1×PBS in a concentration of 0.1-0.5×10^6 per 30 μl. 0.1-0.5×10^6 cells were transplanted via intrahepatic injection into irradiated (1.30 Gy) newborn NSG pups. Human CD45^+ cells in PBMC of recipients were detected by FACS analysis at day 17 to 20 after transplantation.
Peripheral blood was collected by sub-mandibular bleeding at different times after transplantation of human BM cells. Fluorochrome-labeled antibodies were directly added into whole blood. After 30 min of staining, the unbound antibodies were washed away and the red blood cells were lysed with BD FACS™. The stained cells were analyzed with BD FACS Canto II flow cytometry.
Immunohistochemistry was performed on tissue sections from skin, liver, lung, spleen, and kidney of humanized NSG mice. Sections were fixed with 4% paraformaldehyde and dehydrated with graded alcohol. After treatment with heated citrate buffer for antigen retrieval, sections were blocked for endogenous peroxidase activity. Sections were then incubated in 10% goat serum followed by primary antibodies at 4° C. overnight. Fixed samples were stained with the following antibodies, anti-human CD45 (MEM-28) and CD3 (ab828, Abcam PLC, Cambridge, Mass.), for detection of infiltrated human cells. After incubation for 30 minutes with secondary antibody, the specimens were visualized by DAB treatment. Sections were lightly counterstained with hematoxylin to enable visualization of nuclei.
Newborn NSG pups received 0.3-0.5×10^6 human BM cells intrahepatically. Beginning on day 17 or 27, the recipients received 5 intraperitoneal injections of echinomycin, daily at 10 μg/kg. Following 2 days of rest, another 5 intraperitoneal injections of echinomycin were administered at the same dose, once per day. The second round of treatment was performed following 5 days of rest from the prior round of treatment, using the same dose once every other day for 10 total treatments.
To better understand the importance of HIF-1α in the therapy of GvHD, the effect of HIF-1α inhibition was examined. Newborn pups were transplanted with 0.5×10^6 human BM cells via intra-hepatic injection. Twenty-seven days after transplantation, mice were treated with 10 μg/kg of echinomycin for a total of 20 treatments. […]

Data set [1] has as its system HIF-1α. As to the kind of experiment: Intracellular FACS staining of HIF-1α in human T cells from spleen of GvHD mice after echinomycin. Format: in vivo. An excerpt:
(§1) FIG. 4. HIF-1α accumulates in a high proportion of human T cells derived from spleen and BM of the recipients of human BMC: Impact of echinomycin. Panel A. Representative FACS plots showing the accumulation of HIF-1α in T cells from the spleen and BM of GvHD mice. Spleen and BM cells were isolated from the spleens and BM of GvHD mice, stained with anti-human CD45, CD4, CD8, and then intracellular stained with anti-human HIF-1α. Panel B. Representative FACS plots showing the accumulation of HIF-1α in all human cells from spleens of GvHD mice. Spleen cells were isolated from the spleens of GvHD mice, stained with anti-human CD45, CD4, CD8, and then intracellular stained with anti-human HIF-1α. FACS analysis was performed to determine the percentage of HIF-1α positive cells in CD45^+CD4^+CD8-, CD45^+CD4-D8^+ and CD45^+CD4-D8-subpopulations. Panel C. Representative FACS plots showing the percentage of HIF-1α positive T cells in spleen of GvHD mice after echinomycin treatment. […]
(§2) Spleens were gently grinded with frosted objective slides and bone marrow was dissociated with syringes to obtain single-cell suspensions and passed through a nylon cell strainer, washed three times with RPMI-1640, labeled with antibodies and analyzed for the presence of different human cell populations. […]

For data set [2], the system named is HIF-1α / leukemia stem cells. Particulars: in vivo; cited from earlier work.
Data set [3] concerns HIF-1α. Nature of the data set: Western blot of human HIF-1α in spleen cells from GvHD mice after echinomycin. The format is in vivo. Particulars: echinomycin-treated GvHD mice compared to vehicle controls.
Excerpt: as §1
To test the significance of HIF-1α accumulation, GvHD recipient mice were treated with echinomycin, a selective inhibitor of HIF-1α. […] Further, spleen cells from GvHD mice were isolated and human HIF-1α protein levels from echinomycin-treated mice and vehicle controls were measured by western blot analysis. […]
On the technique in general: In western blotting, separated proteins are transferred to a membrane and probed.

Data set [4] concerns FoxP3+ human T cells (Treg). As to the kind of experiment: FACS of FoxP3+ cells within CD4 T cell subset from spleen and BM of GvHD mice. Particulars: one dose of 100 μg/kg echinomycin vs vehicle. Format: in vivo.
Excerpt: as §1, §2

Each structure is given as a SMILES string. “Also recorded” adds a separate entry of the source.

Turning to `CS[C@H]1SC[C@H]2C(=O)N(C)[C@@H](C(C)C)C(=O)OC[C@@H](NC(=O)c3cnc4ccccc4n3)C(=O)N[C@@H](C)C(=O)N(C)[C@@H]1C(=O)N(C)[C@@H](C(C)C)C(=O)OC[C@@H](NC(=O)c1cnc3ccccc3n1)C(=O)N[C@@H](C)C(=O)N2C` [echinomycin], the median survival in the data set with humanized GvHD mice (0.3×10^6 human BM cells, treatment started day 17, 10 μg/kg i.p.) was 119 days; in the data set with humanized GvHD mice (0.5×10^6 human BM cells, treatment started day 27, 10 μg/kg i.p.), 99 days. Besides, the “survival during the treatment period” value with humanized GvHD mice (0.5×10^6 BM cells, 10 μg/kg, 20 treatments from day 27, all vehicle treated mice died) was “survived”. Besides, the “reduction of number of human leukocytes in the peripheral blood” value in the data set with humanized GvHD mice (0.5×10^6 human BM cells, 10 μg/kg i.p. from day 27, over 5 weeks) is “more than 10 fold”. Besides, the “life span (Kaplan-Meier survival curve) compared with vehicle” value in the data set with humanized GvHD mice (3×10^5 or 5×10^5 BM cells, regimen of FIG. 5 Panel A) is on record as “significantly prolonged life span”. In the data set with humanized GvHD mice (continuous treatment of echinomycin), the “mice protected against lethal GvHD” value was approximately 100%. In addition, the “clinical symptoms (skin, hair)” value with humanized GvHD mice (one treated mouse, after two weeks of treatments, 10 μg/kg from day 27) was “regained smooth skin with visible regrowth of hair”. Moreover, in the data set on humanized GvHD mice (skin, intestine, liver and lung, 10 μg/kg i.p. from day 27, day 75), the “human CD3+ T cells in organs (IHC)” value is recorded as “elimination of T cells from all major organs; also recorded: significant reduction of CD3^+ cells”. In addition, the “life span longer than that of mice treated starting at Day 27” value in the data set with humanized GvHD mice (treatment started day 17 vs day 27) is on record as 20 days. Moreover, the “HIF-1α protein in HIF-1α+ T cells of spleen (FACS)” value in the data set with HIF-1α [1] (single dose of 100 μg/kg echinomycin, overnight) is listed as “lost HIF-1α protein overnight”. Moreover, the T cell frequencies result with HIF-1α [1] (single dose of echinomycin) was “largely unaffected”. For the same compound, in data set [2], the “adverse reactions towards hematopoietic stem cells” value was “without adverse reactions”. Also, the “efficacy in experimental leukemia and lymphoma” value in data set [2] was “effective in treating experimental leukemia and lymphoma”. The “HIF-1α protein levels in spleen cells (western blot)” value in the data set on HIF-1α [3] is “significantly decreased”. For the same compound, the figures for the “proportion of Tregs (FoxP3+ cells within CD4 T cell subset)” value in data set [4] and in data set [4] (listed as Echinomycin) were “no apparent difference” and “does not expand human Treg”, respectively.
